Reference: patent US20210037824A1, “HERBICIDAL MIXTURES” (BASF SE, priority 2018, published 2021)

What was measured:
Details in all cases: scale 0 to 100
[1] = test system: LOLMU; assay: greenhouse pre-emergence herbicidal activity, LOLMU; format: in vivo, Lolium multiflorum
Description: (§1) The seeds of the test plants were sown separately for each species. For the pre-emergence treatment, the active compounds, suspended or emulsified in water, were applied 1 day after sowing by means of finely distributing nozzles. The containers were irrigated gently to promote germination and growth and subsequently covered with transparent plastic hoods until the plants had rooted. This cover caused uniform germination of the test plants unless this was adversely affected by the active compounds. Depending on the species, the plants were kept at 10-25° C. and 20-35° C., respectively. The test period extended over 2 to 4 weeks. During this time, the plants were tended and their response to the individual treatments was evaluated. Evaluation was carried out using a scale from 0 to 100. 100 means no emergence of the plants, or complete destruction of at least the above-ground parts, and 0 means no damage or normal course of growth. A good herbicidal activity is given at values of at least 70, and very good herbicidal activity is given at values of at least 85. […] 22ff., the value E, which is expected if the activity of the individual active compounds is only additive, was calculated. […] If the value found experimentally is higher than the value E calculated according to Colby, a synergistic effect is present.

[2] = test system: STEME; assay: greenhouse post-emergence herbicidal activity, STEME; format: in vivo, Stellaria media
Procedure: (§2) The seeds of the test plants were sown separately for each species. For the post-emergence treatment, the test plants were grown to a plant height of from 3 to 15 cm, depending on the plant habit, and only then treated with the active compounds which had been suspended or emulsified in water. To this end, the test plants were either sown directly, and grown in the same containers, or they were first grown separately as seedlings and transplanted into the test containers one week prior to treatment. Depending on the species, the plants were kept at 10-25° C. and 20-35° C., respectively. The test period extended over 2 to 4 weeks. During this time, the plants were tended and their response to the individual treatments was evaluated. Evaluation was carried out using a scale from 0 to 100. 100 means no emergence of the plants, or complete destruction of at least the above-ground parts, and 0 means no damage or normal course of growth. A good herbicidal activity is given at values of at least 70, and very good herbicidal activity is given at values of at least 85. […] 22ff., the value E, which is expected if the activity of the individual active compounds is only additive, was calculated. […] If the value found experimentally is higher than the value E calculated according to Colby, a synergistic effect is present.

[3] = test system: GALAP; assay: greenhouse pre-emergence herbicidal activity, GALAP; format: in vivo, Galium aparine
Description: as §1

[4] = test system: POLCO; assay: greenhouse pre-emergence herbicidal activity, POLCO; format: in vivo, Polygonum convolvulus
Description: (§3) The seeds of the test plants were sown separately for each species. For the pre-emergence treatment, the active compounds, suspended or emulsified in water, were applied 1 day after sowing by means of finely distributing nozzles. The containers were irrigated gently to promote germination and growth and subsequently covered with transparent plastic hoods until the plants had rooted. This cover caused uniform germination of the test plants unless this was adversely affected by the active compounds. Depending on the species, the plants were kept at 10-25° C. and 20-35° C., respectively. The test period extended over 2 to 4 weeks. During this time, the plants were tended and their response to the individual treatments was evaluated. Evaluation was carried out using a scale from 0 to 100. 100 means no emergence of the plants, or complete destruction of at least the above-ground parts, and 0 means no damage or normal course of growth. A good herbicidal activity is given at values of at least 70, and very good herbicidal activity is given at values of at least 85. Trifludimoxazin was formulated as a 500 g/I suspension concentrate, the compound of formula (I) was formulated as a 50 g/I emulsifiable concentrate and, with addition of the amount of solvent system, introduced into the spray liquor used for applying the active compound. In the examples, the solvent used was water. In the examples below, using the method of S. R. Colby (1967) “Calculating synergistic and antagonistic responses of herbicide combinations”, Weeds 15, p. 22ff., the value E, which is expected if the activity of the individual active compounds is only additive, was calculated. E=X+Y−(X·Y/100) • where • X=percent activity using active compound A at an application rate a; • Y=percent activity using active compound B at an application rate b; • E=expected activity (in %) by A+B at application rates a+b. If the value found experimentally is higher than the value E calculated according to Colby, a synergistic effect is present.

[5] = test system: MATIN; assay: greenhouse pre-emergence herbicidal activity, MATIN; format: in vivo, Matricaria inodora
Description: as §1

[6] = test system: IPOHE; assay: greenhouse post-emergence herbicidal activity, IPOHE; format: in vivo, Ipomoea hederacea
Procedure: as §2

[7] = test system: GERDI; assay: greenhouse pre-emergence herbicidal activity, GERDI; format: in vivo, Geranium dissecium
Description: as §3

[8] = test system: ALOMY; assay: greenhouse pre-emergence herbicidal activity, ALOMY; format: in vivo, Alopercurus myosuroides
Description: as §1

[9] = test system: STEME; assay: greenhouse pre-emergence herbicidal activity, STEME; format: in vivo, Stellaria media
Description: as §3

[10] = test system: AVEFA; assay: greenhouse pre-emergence herbicidal activity, AVEFA; format: in vivo, Avena fatua
Description: as §1

[11] = test system: LAMPU; assay: greenhouse pre-emergence herbicidal activity, LAMPU; format: in vivo, Lamium purpureum
Description: as §1

[12] = Example 6, compound (I) 15.63 g/ha a.s. alone
[13] = Example 7, compound (I) 15.63 g/ha a.s. alone
[14] = Example 8, compound (I) 7.81 g/ha a.s. alone
[15] = Example 2, compound (I) 62.5 g/ha a.s. alone
[16] = Example 1, compound (I) 15.625 g/ha a.s. alone
[17] = Example 3, compound (I) 31.25 g/ha a.s. alone
[18] = Example 6, trifludimoxazin 0.5 g/ha a.s. alone
[19] = Example 7, trifludimoxazin 0.25 g/ha a.s. alone
[20] = Example 8, trifludimoxazin 0.25 g/ha a.s. alone
[21] = Example 2, trifludimoxazin 4.5 g/ha a.s. alone
[22] = Example 1, trifludimoxazin 9 g/ha a.s. alone
[23] = Example 3, trifludimoxazin 4.5 g/ha a.s. alone

## CC1(C)CON(Cc2ccc(Cl)cc2Cl)C1=O [(I), 2-(2,4-dichlorophenyl)methyl-4,4-dimethyl-3-isoxazolidone]
[1]; Example 4, compound (I) 125 g/ha a.s. alone
  herbicidal activity against LOLMU found: 65%
[2]; [12]
  herbicidal activity against STEME found: 83%
[3]; Example 9, compound (I) 15.63 g/ha a.s. alone
  herbicidal activity against GALAP found: 73%
[4]; [13]
  herbicidal activity against POLCO found: 60%
[4]; [14]
  herbicidal activity against POLCO found: 50%
[4]; Example 10, compound (I) 62.5 g/ha a.s. alone
  herbicidal activity against POLCO found: 73%
[5]; [15]
  herbicidal activity against MATIN found: 50%
[6]; [12]
  herbicidal activity against IPOHE found: 53%
[7]; [16]
  herbicidal activity against GERDI found: 20%
[7]; [17]
  herbicidal activity against GERDI found: 35%
[7]; Example 5, compound (I) 15.625 g/ha a.s. alone
  herbicidal activity against GERDI found: 20%
[8]; [16]
  herbicidal activity against ALOMY found: 0%
[9]; [13]
  herbicidal activity against STEME found: 83%
[9]; [14]
  herbicidal activity against STEME found: 85%
[10]; [15]
  herbicidal activity against AVEFA found: 0%
[11]; [17]
  herbicidal activity against LAMPU found: 0%

## C#CCN1C(=O)C(F)(F)Oc2cc(F)c(-n3c(=O)n(C)c(=S)n(C)c3=O)cc21 [trifludimoxazin, 1,5-dimethyl-6-thioxo-3-(2,2,7-trifluoro-3-oxo-4-(prop-2-ynyl)-3,4-dihydro-2H-benzo[b][1,4]oxazin-6-yl)-1,3,5-triazinane-2,4-dione]
[1]; Example 4, trifludimoxazin 9 g/ha a.s. alone
  herbicidal activity against LOLMU found: 65%
[2]; [18]
  herbicidal activity against STEME found: 90%
[3]; Example 9, trifludimoxazin 2 g/ha a.s. alone
  herbicidal activity against GALAP found: 93%
[4]; [19]
  herbicidal activity against POLCO found: 88%
[4]; [20]
  herbicidal activity against POLCO found: 88%
[4]; Example 10, trifludimoxazin 0.25 g/ha a.s. alone
  herbicidal activity against POLCO found: 88%
[5]; [21]
  herbicidal activity against MATIN found: 90%
[6]; [18]
  herbicidal activity against IPOHE found: 97%
[7]; [22]
  herbicidal activity against GERDI found: 75%
[7]; [23]
  herbicidal activity against GERDI found: 0%
[7]; Example 5, trifludimoxazin 4.5 g/ha a.s. alone
  herbicidal activity against GERDI found: 0%
[8]; [22]
  herbicidal activity against ALOMY found: 60%
[9]; [19]
  herbicidal activity against STEME found: 80%
[9]; [20]
  herbicidal activity against STEME found: 80%
[10]; [21]
  herbicidal activity against AVEFA found: 35%
[11]; [23]
  herbicidal activity against LAMPU found: 98%
